pIC50: −log10 of the molar value.

What is called pIC50 is the negative decadic logarithm of the IC50, by convention in mol/L.

The assay addresses Proteasome chymotrypsin-like activity (S26 protein from RPMI8226 cells) (Homo sapiens, UniProt P28074). It is filed as biochemical. Particulars: S26 protein from RPMI8226 cell extract 2 ug/well, substrate 20 uM, 37° C., 90 minutes; read-out: Proteasome chymotrypsin-like activity inhibition IC50. The procedure, abridged:
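RPMI8226 myeloma cell lysate (S26 fraction, 20 mM Tris-HCl pH 8.0; 2 ug/well) incubated with compound serially diluted from 10 uM (0.5% DMSO) and 20 uM Suc-LLVY-AMC (chymotrypsin-like) or Z-LLE-AMC (caspase-like) for 90 min at 37 °C. Fluorescence read; IC50 from % of uninhibited signal.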

Proteasome chymotrypsin-like activity (S26 protein from RPMI8226 cells), sequence (P28074 60-263 limits assumed): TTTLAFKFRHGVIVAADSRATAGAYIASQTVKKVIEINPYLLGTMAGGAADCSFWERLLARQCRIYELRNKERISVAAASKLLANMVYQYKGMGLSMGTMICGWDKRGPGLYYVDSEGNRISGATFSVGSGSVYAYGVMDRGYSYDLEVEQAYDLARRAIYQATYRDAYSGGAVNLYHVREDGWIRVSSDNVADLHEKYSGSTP

With `COCCn1nccc1C(=O)NCC1=NOC(Cc2ccccc2)(C(=O)N[C@@H](CC(C)C)B(O)O)C1` (stereo partly drawn) [Example 191, ((1R)-1-(5-benzyl-3-((1-(2-methoxyethyl)-1H-pyrazol-5-carboxamido)methyl)-4,5-dihydroisoxazol-5-carboxamido)-3-methylbutyl)boronic acid], the pIC50 is more than 7.60.

On to `Cc1nc2c(C(=O)NCC3=NOC(Cc4ccccc4)(C(=O)N[C@@H](CC(C)C)B(O)O)C3)cccn2c1Cl` (stereo partly drawn) [Example 140, ((1R)-1-(5-benzyl-3-((3-chloro-2-methylimidazo[1,2-a]pyridin-8-carboxamido)methyl)-4,5-dihydroisoxazol-5-carboxamido)-3-methylbutyl)boronic acid], for which the pIC50 is more than 8.00.

On to `CC(C)C[C@H](NC(=O)C1(Cc2cccc(Cl)c2)CC(CNC(=O)c2cccn3ccnc23)=NO1)B(O)O` (stereo partly drawn) [Example 177, ((1R)-1-(5-(3-chlorobenzyl)-3-((imidazo[1,2-a]pyridin-8-carboxamido)methyl)-4,5-dihydroisoxazol-5-carboxamido)-3-methylbutyl)boronic acid], for which the pIC50 is more than 8.00.

Turning to `Cc1cccc(CC2(C(=O)N[C@@H](CC(C)C)B(O)O)CC(CNC(=O)c3cc(C)nn3C3CCOCC3)=NO2)c1` (stereo partly drawn) [Example 251, ((1R)-3-methyl-1-(3-((3-methyl-1-(tetrahydro-2H-pyran-4-yl)-1H-pyrazol-5-carboxamido)methyl)-5-(3-methylbenzyl)-4,5-dihydroisoxazol-5-carboxamido)butyl)boronic acid], the pIC50 was more than 8.00.

With `CC(C)C[C@H](NC(=O)C1(Cc2cccc(OC(F)(F)F)c2)CC(CNC(=O)c2nccc3ccccc23)=NO1)B(O)O` (stereo partly drawn) [Example 216, ((1R)-1-(3-((isoquinolin-1-carboxamido)methyl)-5-(3-(trifluoromethoxy)benzyl)-4,5-dihydroisoxazol-5-carboxamido)-3-methylbutyl)boronic acid], the pIC50 was more than 8.00.

As to `COc1cccc(CC2(C(=O)N[C@@H](CC(C)C)B(O)O)CC(CNC(=O)c3ccnn3C(C)C)=NO2)c1` (stereo partly drawn) [Example 239, ((1R)-1-(3-((1-isopropyl-1H-pyrazol-5-carboxamido)methyl)-5-(3-methoxybenzyl)-4,5-dihydroisoxazol-5-carboxamido)-3-methylbutyl)boronic acid], the pIC50 was more than 8.00.

In the case of `Cc1nn(C(C)C)c(C(=O)NCC2=NOC(Cc3ccccc3)(C(=O)N[C@@H](CC(C)C)B(O)O)C2)c1Cl` (stereo partly drawn) [Example 222, ((1R)-1-(5-benzyl-3-((4-chloro-1-isopropyl-3-methyl-1H-pyrazol-5-carboxamido)methyl)-4,5-dihydroisoxazol-5-carboxamido)-3-methylbutyl)boronic acid], the pIC50 was more than 8.00.

In the case of `CC(C)C[C@H](NC(=O)C1CC(c2cc(Cl)ccc2Cl)=NO1)B(O)O` (stereo partly drawn) [Example 3, ((1R)-1-(3-(2,5-dichlorophenyl)-4,5-dihydroisoxazol-5-carboxamido)-3-methylbutyl)boronic acid], the pIC50 was more than 6.60.

Regarding `O=C(NCC1=NOC(Cc2ccccc2)(C(=O)N[C@@H](Cc2ccccc2)B(O)O)C1)c1cccc(C(F)(F)F)c1` (stereo partly drawn) [Example 281, ((1R)-1-(5-benzyl-3-((3-(trifluoromethyl)benzamido)methyl)-4,5-dihydroisoxazol-5-carboxamido)-2-phenylethyl)boronic acid], the pIC50 was more than 8.00.

For the compound `CC(C)C[C@H](NC(=O)C1CC(c2cccc(Oc3ccccn3)c2)=NO1)B(O)O` (stereo partly drawn) [Example 41, ((1R)-3-methyl-1-(3-(3-(pyridin-2-yloxy)phenyl)-4,5-dihydroisoxazol-5-carboxamido)butyl)boronic acid], the pIC50 is more than 6.60.

Consider `CC(C)C[C@H](NC(=O)C1CC(c2ccc(C(C)(C)C)cc2)=NO1)B(O)O` (stereo partly drawn) [Example 15, ((1R)-1-(3-(4-(tert-butyl)phenyl)-4,5-dihydroisoxazol-5-carboxamido)-3-methylbutyl)boronic acid], for which the pIC50 is more than 6.60.

For `CC(C)C[C@H](NC(=O)C1(Cc2ccccc2)CC(CNC(=O)c2ccc(OC(C)C)c(C#N)c2)=NO1)B(O)O` (stereo partly drawn) [Example 123, [(1R)-1-[[5-benzyl-3-[[(3-cyano-4-isopropoxy-benzoyl)amino]methyl]-4H-1,2-oxazol-5-carbonyl]amino]-3-methyl-butyl]boronic acid], the pIC50 is more than 8.00.

For `O=C(NCC1=NOC(Cc2ccccc2)(C(=O)N[C@@H](Cc2ccccc2)B(O)O)C1)c1nccc2ccccc12` (stereo partly drawn) [Example 288, ((1R)-1-(5-benzyl-3-((isoquinolin-1-carboxamido)methyl)-4,5-dihydroisoxazol-5-carboxamido)-2-phenylethyl)boronic acid], the pIC50 is more than 8.00.

Turning to `Cc1nc(C)c(C(=O)NCC2=NOC(Cc3cccc(Cl)c3)(C(=O)N[C@@H](CC(C)C)B(O)O)C2)s1` (stereo partly drawn) [Example 219, ((1R)-1-(5-(3-chlorobenzyl)-3-((2,4-dimethylthiazol-5-carboxamido)methyl)-4,5-dihydroisoxazol-5-carboxamido)-3-methylbutyl)boronic acid], the pIC50 was more than 8.00.

Consider `CC(C)C[C@H](NC(=O)C1CC(c2cccc(Oc3ccccc3)c2)=NO1)B(O)O` (stereo partly drawn) [Example 40, ((1R)-3-methyl-1-(3-(3-phenoxyphenyl)-4,5-dihydroisoxazol-5-carboxamido)butyl)boronic acid], for which the pIC50 is more than 6.30.

Take `CC(C)C[C@H](NC(=O)C1(Cc2ccccc2)CC(COCc2cccc(-c3ccccc3)n2)=NO1)B(O)O` (stereo partly drawn) [Example 55, [(1R)-1-[[5-benzyl-3-[(6-phenyl-2-pyridyl)methoxymethyl]-4H-1,2-oxazol-5-carbonyl]amino]-3-methyl-butyl]boronic acid]: the pIC50 is more than 8.00.

Consider `CC(C)C[C@H](NC(=O)C1(Cc2ccccc2)CC(CNC(=O)c2cccc(-c3ccccn3)c2)=NO1)B(O)O` (stereo partly drawn) [Example 98, ((1R)-1-(5-benzyl-3-((3-(pyridin-2-yl)benzamido)methyl)-4,5-dihydroisoxazol-5-carboxamido)-3-methylbutyl)boronic acid], for which the pIC50 is more than 8.00.

Take `CC(C)C[C@H](NC(=O)C1CC(c2nccc3ccccc23)=NO1)B(O)O` (stereo partly drawn) [Example 12, ((1R)-1-(3-(isoquinolin-1-yl)-4,5-dihydroisoxazol-5-carboxamido)-3-methylbutyl)boronic acid]: the pIC50 was more than 6.60.

With `Cc1cccc(C(=O)NCC2=NOC(Cc3ccccc3)(C(=O)N[C@@H](CC(C)C)B(O)O)C2)c1` (stereo partly drawn) [Example 307], the pIC50 is more than 8.00.

Regarding `CC(C)C[C@H](NC(=O)C1(Cc2ccccc2)CC(CNC(=O)c2ccn[nH]2)=NO1)B(O)O` (stereo partly drawn) [Example 169, ((1R)-1-(3-((1H-pyrazol-5-carboxamido)methyl)-5-benzyl-4,5-dihydroisoxazol-5-carboxamido)-3-methylbutyl)boronic acid], the pIC50 is more than 7.60.

In the case of `CC(C)[C@H](NC(=O)C1(Cc2ccccc2)CC(CNC(=O)c2nccc3ccccc23)=NO1)B(O)O` (stereo partly drawn) [Example 290, ((1R)-1-(5-benzyl-3-((isoquinolin-1-carboxamido)methyl)-4,5-dihydroisoxazol-5-carboxamido)-2-methylpropyl)boronic acid], the pIC50 is more than 8.00.

Turning to `CC(C)C[C@H](NC(=O)C1(Cc2ccc(Cl)cc2)CC(CNC(=O)c2nccc3ccccc23)=NO1)B(O)O` (stereo partly drawn) [Example 101, ((1R)-1-(5-(4-chlorobenzyl)-3-((isoquinolin-1-carboxamido)methyl)-4,5-dihydroisoxazol-5-carboxamido)-3-methylbutyl)boronic acid], the pIC50 is more than 8.00.

For the compound `CC(C)C[C@H](NC(=O)C1(Cc2ccccc2)CC(C(C)(C)NC(=O)c2cccn3ccnc23)=NO1)B(O)O` (stereo partly drawn) [Example 158, ((1R)-1-(5-benzyl-3-(2-(imidazo[1,2-a]pyridin-8-carboxamido)propan-2-yl)-4,5-dihydroisoxazol-5-carboxamido)-3-methylbutyl)boronic acid], the pIC50 is more than 7.00.

As for `COc1cccc(CC2(C(=O)N[C@@H](CC(C)C)B(O)O)CC(CNC(=O)c3cc(C(C)(C)C)nn3C(C)C)=NO2)c1` (stereo partly drawn) [Example 231, ((1R)-1-(3-((3-(tert-butyl)-1-isopropyl-1H-pyrazol-5-carboxamido)methyl)-5-(3-methoxybenzyl)-4,5-dihydroisoxazol-5-carboxamido)-3-methylbutyl)boronic acid], the negative logarithm of the IC50 (pIC50) is more than 8.00.

Consider `CC(C)C[C@H](NC(=O)C1(Cc2ccccc2)CC(COc2cccc(Cl)c2)=NO1)B(O)O` (stereo partly drawn) [Example 258], for which the pIC50 was more than 8.00.

Turning to `CC(C)C[C@H](NC(=O)C1(Cc2ccccc2)CC(COCc2cccc(Cl)c2)=NO1)B(O)O` (stereo partly drawn) [Example 260], the pIC50 is more than 7.30.

For the compound `Cc1cccnc1C(=O)NCC1=NOC(Cc2ccccc2)(C(=O)N[C@@H](CC(C)C)B(O)O)C1` (stereo partly drawn) [Example 159, ((1R)-1-(5-benzyl-3-((3-methylpicolinamido)methyl)-4,5-dihydroisoxazol-5-carboxamido)-3-methylbutyl)boronic acid], the pIC50 was more than 8.00.

As to `CCC1(C(=O)N[C@@H](CC(C)C)B(O)O)CC(c2cnccn2)=NO1` (stereo partly drawn) [Example 6, ((1R)-1-(5-ethyl-3-(pyrazin-2-yl)-4,5-dihydroisoxazol-5-carboxamido)-3-methylbutyl)boronic acid], the negative logarithm of the IC50 (pIC50) is less than 6.00.

Take `COc1ccc(-c2cccc(COCC3=NOC(Cc4ccccc4)(C(=O)N[C@@H](CC(C)C)B(O)O)C3)c2)cc1` (stereo partly drawn) [Example 56, ((1R)-1-(5-benzyl-3-(((4′-methoxy-[1,1′-biphenyl]-3-yl)methoxy)methyl)-4,5-dihydroisoxazol-5-carboxamido)-3-methylbutyl)boronic acid]: the pIC50 was more than 8.00.

With `O=C(NCC1=NOC(Cc2ccccc2)(C(=O)N[C@@H](Cc2ccccc2)B(O)O)C1)c1cccc2ccccc12` (stereo partly drawn) [Example 299, ((1R)-1-(3-((1-naphthamido)methyl)-5-benzyl-4,5-dihydroisoxazol-5-carboxamido)-2-phenylethyl)boronic acid], the pIC50 is more than 8.00.

The values are drawn from patent US12570675B2, “Boronic acid compounds” (LG CHEM, LTD., priority 2020, dated 2026).
